Experimental data reported in ChEMBL document CHEMBL1201862, “PubChem BioAssay data set” (2004).
Calls of active or inactive are those of the source. Rule as the data show it, for most assays here: actives have a measured EC50 and inactives only a lower limit.

How the values were obtained:
[1] = NIH-3T3 fibroblast cytotoxicity, dose response, cytotoxicity control, cell-based, fluorescence, Alamar Blue, secondary assay (AID 2327); format: functional;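 also: NIH-3T3 mouse fibroblasts cultured with fluconazole at 8 µg/mL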
[2] = fluconazole-exposed Candida albicans growth modulators – fluorescence, retest, confirmation (AID 2467); format: functional, cell-based
[3] = biological target: T1, Serine/threonine-protein phosphatase (Candida dubliniensis (strain CD36 / CBS 7987 / NCPF 3949 / NRRLY-17841) (Yeast), UniProt B9W6M3); test: blockers of CaCl2-induced CDRE-lacZ signaling – S. cerevisiae, luminescence, secondary, dose response (AID 2388); format: functional, cell-based;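 also: yeast reporter cells carrying a calcineurin-responsive lacZ construct stimulated with calcium chloride; luminescent beta-galactosidase reporter signal in whole cells rather than isolated phosphatase activity; potency for inhibition where a drop in reporter signal means calcineurin blockade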
T1 sequence (B9W6M3 whole entry): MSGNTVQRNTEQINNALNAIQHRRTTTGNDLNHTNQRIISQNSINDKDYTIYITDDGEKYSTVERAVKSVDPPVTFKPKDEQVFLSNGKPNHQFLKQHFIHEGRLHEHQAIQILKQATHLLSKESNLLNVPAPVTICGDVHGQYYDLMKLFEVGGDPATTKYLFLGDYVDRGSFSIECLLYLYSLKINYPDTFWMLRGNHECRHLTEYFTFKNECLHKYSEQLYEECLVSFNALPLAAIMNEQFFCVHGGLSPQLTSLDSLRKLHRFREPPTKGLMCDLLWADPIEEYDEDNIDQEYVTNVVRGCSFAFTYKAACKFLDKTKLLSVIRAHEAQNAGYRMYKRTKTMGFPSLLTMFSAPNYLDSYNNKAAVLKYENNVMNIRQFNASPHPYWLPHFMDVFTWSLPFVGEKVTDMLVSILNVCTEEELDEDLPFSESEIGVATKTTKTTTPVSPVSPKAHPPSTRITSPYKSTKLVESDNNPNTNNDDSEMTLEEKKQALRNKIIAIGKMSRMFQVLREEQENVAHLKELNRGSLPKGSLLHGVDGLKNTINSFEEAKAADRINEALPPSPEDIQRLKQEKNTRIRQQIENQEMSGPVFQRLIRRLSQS

[4] = biological target: ATP-dependent molecular chaperone HSP82 (Candida albicans (strain WO-1) (Yeast), UniProt C4YTQ8); test: steroid-induced GRE reporter decrease in yeast – S. cerevisiae, luminescence, Hsp90 inhibitor project, dose response (AID 2400); format: functional, cell-based;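 also: beta-galactosidase luminescence from glucocorticoid response element reporter as proxy for Hsp90 function; inhibitor potency where signal loss means Hsp90 inhibition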
Genome polyprotein = Genome polyprotein (dengue virus type 2, UniProt P29990); test: flavivirus cap methylation enzyme inhibition – biochemical, confirmation dose response, primary screen (AID 588689); format: functional
[5] = biological target: T2, Replicative DNA helicase DnaB (Mycobacterium tuberculosis, UniProt P9WMR3); test: DnaB intein splicing inhibitors, dose response, biochemical, cell-free fluorescence (AID 449749); format: functional
T2 sequence (P9WMR3 whole entry): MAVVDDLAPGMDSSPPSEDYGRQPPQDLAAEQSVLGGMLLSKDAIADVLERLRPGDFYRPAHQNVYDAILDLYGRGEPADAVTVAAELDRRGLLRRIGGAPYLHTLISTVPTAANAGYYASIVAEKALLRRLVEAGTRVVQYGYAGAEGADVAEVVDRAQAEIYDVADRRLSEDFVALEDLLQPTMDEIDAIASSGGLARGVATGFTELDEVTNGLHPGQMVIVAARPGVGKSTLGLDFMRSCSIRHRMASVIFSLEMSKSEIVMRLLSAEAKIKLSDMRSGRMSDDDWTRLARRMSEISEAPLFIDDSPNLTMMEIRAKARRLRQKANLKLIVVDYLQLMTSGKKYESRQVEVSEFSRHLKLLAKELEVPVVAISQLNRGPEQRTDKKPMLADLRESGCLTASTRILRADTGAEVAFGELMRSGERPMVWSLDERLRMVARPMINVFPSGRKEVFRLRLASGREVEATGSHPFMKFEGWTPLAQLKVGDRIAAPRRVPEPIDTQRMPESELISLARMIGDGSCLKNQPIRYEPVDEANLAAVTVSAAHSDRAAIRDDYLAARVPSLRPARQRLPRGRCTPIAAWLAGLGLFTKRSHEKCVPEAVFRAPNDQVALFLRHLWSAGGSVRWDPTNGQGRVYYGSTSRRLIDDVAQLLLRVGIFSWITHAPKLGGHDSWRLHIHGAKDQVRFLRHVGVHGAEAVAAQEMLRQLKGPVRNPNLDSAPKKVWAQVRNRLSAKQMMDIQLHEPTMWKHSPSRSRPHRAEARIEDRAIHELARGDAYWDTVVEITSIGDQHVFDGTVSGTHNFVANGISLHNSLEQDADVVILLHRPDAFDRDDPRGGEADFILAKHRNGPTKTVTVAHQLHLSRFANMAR

Protein RecA = biological target: T3, Protein RecA (Mycobacterium tuberculosis, UniProt P9WHJ3); test: Fluorescence Cell-Free Homogeneous Dose Retest to Identify Inhibitors of RecA-Intein Splicing Activity. [Related pubchem assays (depositor defined):AID2097, AID2223, AID489010, AID492950]; format: functional
T3 sequence (P9WHJ3 whole entry): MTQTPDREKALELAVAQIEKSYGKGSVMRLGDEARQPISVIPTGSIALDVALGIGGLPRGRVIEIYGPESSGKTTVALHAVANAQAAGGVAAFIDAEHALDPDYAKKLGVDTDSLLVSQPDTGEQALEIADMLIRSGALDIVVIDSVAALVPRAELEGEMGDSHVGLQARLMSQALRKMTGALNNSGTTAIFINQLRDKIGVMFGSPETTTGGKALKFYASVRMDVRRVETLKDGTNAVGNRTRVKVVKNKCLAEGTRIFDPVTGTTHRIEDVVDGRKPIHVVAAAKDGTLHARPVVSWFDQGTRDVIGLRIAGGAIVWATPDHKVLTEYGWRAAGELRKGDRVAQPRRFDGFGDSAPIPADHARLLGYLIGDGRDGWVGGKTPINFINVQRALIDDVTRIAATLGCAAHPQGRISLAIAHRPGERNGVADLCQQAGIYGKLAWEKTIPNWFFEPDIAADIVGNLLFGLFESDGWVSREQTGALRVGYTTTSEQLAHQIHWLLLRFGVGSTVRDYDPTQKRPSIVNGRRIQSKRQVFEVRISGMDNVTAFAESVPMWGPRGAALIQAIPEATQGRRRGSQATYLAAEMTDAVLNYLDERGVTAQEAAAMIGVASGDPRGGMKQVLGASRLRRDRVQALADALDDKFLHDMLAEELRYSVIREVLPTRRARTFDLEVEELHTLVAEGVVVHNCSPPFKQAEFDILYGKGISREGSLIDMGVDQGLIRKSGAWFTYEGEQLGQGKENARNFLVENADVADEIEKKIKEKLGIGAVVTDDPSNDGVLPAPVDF

[6] = biological target: T4, Carboxy-terminal domain RNA polymerase II polypeptide A small phosphatase 1 (Homo sapiens, UniProt Q9GZU7); test: CTDSP1 inhibitors, concentration-response, biochemical, absorbance readout, ultra-high-throughput screen actives (AID 540297); format: functional
T4 sequence (Q9GZU7 whole entry): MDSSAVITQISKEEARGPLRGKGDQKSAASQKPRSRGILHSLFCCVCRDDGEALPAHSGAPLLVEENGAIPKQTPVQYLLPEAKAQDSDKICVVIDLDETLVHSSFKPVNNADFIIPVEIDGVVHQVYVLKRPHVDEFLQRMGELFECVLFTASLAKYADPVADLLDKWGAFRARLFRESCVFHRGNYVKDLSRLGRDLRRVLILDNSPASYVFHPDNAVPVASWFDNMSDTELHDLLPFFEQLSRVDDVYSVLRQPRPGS

BJ [7] = test: BJ-TERT fibroblast viability loss – cell-based, RAS-independent, luminescence, dose response (AID 1933); format: functional; details: Homo sapiens
BJ [8] = test: cells; format: functional, cell-based; details: Homo sapiens
BJ [9] = test: BJ-TERT-LT-ST fibroblast viability loss – cell-based, RAS-independent, luminescence, dose response (AID 1935); format: functional; details: Homo sapiens;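 also: BJ fibroblasts immortalized with TERT plus LT and ST oncogenes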
[10] = DRD fibroblast viability loss – cell-based, non-viral oncogenic, luminescence, dose response (AID 1934); format: functional; details: Homo sapiens
[11] = HEK-293T viability loss after treatment – luminescence, T-cell screen hits, cytotoxicity control for TCR NF-kB inhibitor project, dose response (AID 489026); format: functional, cell-based;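 also: cells exposed to compound about 14 hours before the viability readout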
Fatty acid synthase [12] = biological target: T5, Fatty acid synthase (Homo sapiens, UniProt P49327); test: inhibition of human FAS-TE enzyme activity – biochemical, endpoint fluorescence intensity, uHTS hits, dose response (AID 624327); format: functional;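 also: fluorescence from hydrolysis of an O-methyl fluorescein acyl ester substrate by the enzyme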
Fatty acid synthase [13] = biological target: T5, Fatty acid synthase; test: inhibition of human FAS-TE enzyme activity – biochemical, kinetic fluorescence intensity, dose response (AID 624326); format: functional;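 also: rate of fluorescence rise from hydrolysis of a fluorogenic O-methyl fluorescein ester substrate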
Paired box protein Pax-8 = Paired box protein Pax-8 (Homo sapiens, UniProt Q06710); test: PAX8 transcriptional activity inhibition in RMG-I – RMG-I cells, luciferase, cherry-pick, dose response (AID 687027); format: functional, cell-based;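 also: luciferase reporter driven by Pax8 target thyroperoxidase promoter measured by SteadyGlo luminescence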
[14] = luciferase reporter signal suppression in cells – H4 neuroglioma cells, luminescence, dose response (AID 1990); format: functional, cell-based
[15] = test system: Streptococcus sp. 'group A'; test: Streptococcus pyogenes SK(-)GAS viability under kanamycin – luminescence, BacTiterGlo, confirmation, counter-screen for streptokinase expression inhibitor project, dose response (AID 1900); format: functional, organism-based
[16] = Luminescence Cell-Based Dose Response HTS to Identify Inhibitors of 5'UTR Stem-Loop Driven Prion Protein mRNA Translation in H4 Neuroglioblastoma Cells. [Related pubchem assays: 1827 (Project Summary), 1813 (Primary HTS)]; format: functional
[17] = alpha-synuclein stem-loop luciferase translation blockers – H4 neuroglioma cells, luminescence, confirmation (AID 1988); format: functional, cell-based
Streptococcus = test: GAS UMAA2166 growth inhibition – luminescence, BacTiterGlo, counter-screen for streptokinase expression inhibitor project, dose response (AID 1915); format: functional, organism-based;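 also: potency for reduction of bacterial viability or growth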

ATP-dependent molecular chaperone HSP82, sequence (C4YTQ8 whole entry): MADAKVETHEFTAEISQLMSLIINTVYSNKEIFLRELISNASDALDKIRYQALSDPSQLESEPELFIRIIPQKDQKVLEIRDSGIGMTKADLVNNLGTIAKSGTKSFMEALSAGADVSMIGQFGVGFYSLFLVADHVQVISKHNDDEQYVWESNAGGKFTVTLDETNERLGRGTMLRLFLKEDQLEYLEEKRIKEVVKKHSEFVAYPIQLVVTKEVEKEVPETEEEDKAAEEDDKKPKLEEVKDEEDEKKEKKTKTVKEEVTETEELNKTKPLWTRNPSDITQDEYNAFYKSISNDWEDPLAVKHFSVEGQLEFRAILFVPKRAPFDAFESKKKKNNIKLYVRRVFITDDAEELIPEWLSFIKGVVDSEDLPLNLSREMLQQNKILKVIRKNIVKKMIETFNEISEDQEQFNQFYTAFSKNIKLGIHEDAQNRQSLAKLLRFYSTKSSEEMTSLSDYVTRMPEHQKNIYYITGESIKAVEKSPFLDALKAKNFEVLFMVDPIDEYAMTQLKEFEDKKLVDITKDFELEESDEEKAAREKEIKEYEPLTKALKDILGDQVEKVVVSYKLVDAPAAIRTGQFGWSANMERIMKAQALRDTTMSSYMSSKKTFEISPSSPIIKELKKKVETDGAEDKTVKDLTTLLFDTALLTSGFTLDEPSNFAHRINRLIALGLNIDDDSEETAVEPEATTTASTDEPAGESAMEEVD
Genome polyprotein, sequence (P29990 2492-3391 limits assumed): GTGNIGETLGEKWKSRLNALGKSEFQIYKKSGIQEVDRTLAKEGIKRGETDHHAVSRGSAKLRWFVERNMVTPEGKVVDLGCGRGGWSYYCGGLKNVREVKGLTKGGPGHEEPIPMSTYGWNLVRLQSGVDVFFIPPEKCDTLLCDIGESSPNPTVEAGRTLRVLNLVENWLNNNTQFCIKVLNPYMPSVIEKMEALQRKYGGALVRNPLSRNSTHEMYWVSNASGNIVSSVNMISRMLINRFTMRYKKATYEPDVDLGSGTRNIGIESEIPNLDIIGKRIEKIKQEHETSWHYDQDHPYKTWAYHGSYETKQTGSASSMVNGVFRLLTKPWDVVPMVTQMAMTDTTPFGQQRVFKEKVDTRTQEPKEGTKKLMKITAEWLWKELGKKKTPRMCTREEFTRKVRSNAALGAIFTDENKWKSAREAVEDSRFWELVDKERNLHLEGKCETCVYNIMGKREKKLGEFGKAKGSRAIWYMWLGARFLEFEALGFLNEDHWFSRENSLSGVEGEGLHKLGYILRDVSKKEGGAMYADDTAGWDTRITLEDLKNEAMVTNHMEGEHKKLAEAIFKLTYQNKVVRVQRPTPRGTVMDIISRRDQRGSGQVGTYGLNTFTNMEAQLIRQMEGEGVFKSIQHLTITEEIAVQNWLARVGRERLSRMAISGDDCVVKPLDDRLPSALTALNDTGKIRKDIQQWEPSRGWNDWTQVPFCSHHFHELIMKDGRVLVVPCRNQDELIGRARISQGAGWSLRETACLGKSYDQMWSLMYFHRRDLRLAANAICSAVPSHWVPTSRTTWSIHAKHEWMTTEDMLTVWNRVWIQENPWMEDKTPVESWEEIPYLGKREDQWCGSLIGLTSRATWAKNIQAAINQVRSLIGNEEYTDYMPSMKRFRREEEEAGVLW
T5 sequence (P49327 whole entry): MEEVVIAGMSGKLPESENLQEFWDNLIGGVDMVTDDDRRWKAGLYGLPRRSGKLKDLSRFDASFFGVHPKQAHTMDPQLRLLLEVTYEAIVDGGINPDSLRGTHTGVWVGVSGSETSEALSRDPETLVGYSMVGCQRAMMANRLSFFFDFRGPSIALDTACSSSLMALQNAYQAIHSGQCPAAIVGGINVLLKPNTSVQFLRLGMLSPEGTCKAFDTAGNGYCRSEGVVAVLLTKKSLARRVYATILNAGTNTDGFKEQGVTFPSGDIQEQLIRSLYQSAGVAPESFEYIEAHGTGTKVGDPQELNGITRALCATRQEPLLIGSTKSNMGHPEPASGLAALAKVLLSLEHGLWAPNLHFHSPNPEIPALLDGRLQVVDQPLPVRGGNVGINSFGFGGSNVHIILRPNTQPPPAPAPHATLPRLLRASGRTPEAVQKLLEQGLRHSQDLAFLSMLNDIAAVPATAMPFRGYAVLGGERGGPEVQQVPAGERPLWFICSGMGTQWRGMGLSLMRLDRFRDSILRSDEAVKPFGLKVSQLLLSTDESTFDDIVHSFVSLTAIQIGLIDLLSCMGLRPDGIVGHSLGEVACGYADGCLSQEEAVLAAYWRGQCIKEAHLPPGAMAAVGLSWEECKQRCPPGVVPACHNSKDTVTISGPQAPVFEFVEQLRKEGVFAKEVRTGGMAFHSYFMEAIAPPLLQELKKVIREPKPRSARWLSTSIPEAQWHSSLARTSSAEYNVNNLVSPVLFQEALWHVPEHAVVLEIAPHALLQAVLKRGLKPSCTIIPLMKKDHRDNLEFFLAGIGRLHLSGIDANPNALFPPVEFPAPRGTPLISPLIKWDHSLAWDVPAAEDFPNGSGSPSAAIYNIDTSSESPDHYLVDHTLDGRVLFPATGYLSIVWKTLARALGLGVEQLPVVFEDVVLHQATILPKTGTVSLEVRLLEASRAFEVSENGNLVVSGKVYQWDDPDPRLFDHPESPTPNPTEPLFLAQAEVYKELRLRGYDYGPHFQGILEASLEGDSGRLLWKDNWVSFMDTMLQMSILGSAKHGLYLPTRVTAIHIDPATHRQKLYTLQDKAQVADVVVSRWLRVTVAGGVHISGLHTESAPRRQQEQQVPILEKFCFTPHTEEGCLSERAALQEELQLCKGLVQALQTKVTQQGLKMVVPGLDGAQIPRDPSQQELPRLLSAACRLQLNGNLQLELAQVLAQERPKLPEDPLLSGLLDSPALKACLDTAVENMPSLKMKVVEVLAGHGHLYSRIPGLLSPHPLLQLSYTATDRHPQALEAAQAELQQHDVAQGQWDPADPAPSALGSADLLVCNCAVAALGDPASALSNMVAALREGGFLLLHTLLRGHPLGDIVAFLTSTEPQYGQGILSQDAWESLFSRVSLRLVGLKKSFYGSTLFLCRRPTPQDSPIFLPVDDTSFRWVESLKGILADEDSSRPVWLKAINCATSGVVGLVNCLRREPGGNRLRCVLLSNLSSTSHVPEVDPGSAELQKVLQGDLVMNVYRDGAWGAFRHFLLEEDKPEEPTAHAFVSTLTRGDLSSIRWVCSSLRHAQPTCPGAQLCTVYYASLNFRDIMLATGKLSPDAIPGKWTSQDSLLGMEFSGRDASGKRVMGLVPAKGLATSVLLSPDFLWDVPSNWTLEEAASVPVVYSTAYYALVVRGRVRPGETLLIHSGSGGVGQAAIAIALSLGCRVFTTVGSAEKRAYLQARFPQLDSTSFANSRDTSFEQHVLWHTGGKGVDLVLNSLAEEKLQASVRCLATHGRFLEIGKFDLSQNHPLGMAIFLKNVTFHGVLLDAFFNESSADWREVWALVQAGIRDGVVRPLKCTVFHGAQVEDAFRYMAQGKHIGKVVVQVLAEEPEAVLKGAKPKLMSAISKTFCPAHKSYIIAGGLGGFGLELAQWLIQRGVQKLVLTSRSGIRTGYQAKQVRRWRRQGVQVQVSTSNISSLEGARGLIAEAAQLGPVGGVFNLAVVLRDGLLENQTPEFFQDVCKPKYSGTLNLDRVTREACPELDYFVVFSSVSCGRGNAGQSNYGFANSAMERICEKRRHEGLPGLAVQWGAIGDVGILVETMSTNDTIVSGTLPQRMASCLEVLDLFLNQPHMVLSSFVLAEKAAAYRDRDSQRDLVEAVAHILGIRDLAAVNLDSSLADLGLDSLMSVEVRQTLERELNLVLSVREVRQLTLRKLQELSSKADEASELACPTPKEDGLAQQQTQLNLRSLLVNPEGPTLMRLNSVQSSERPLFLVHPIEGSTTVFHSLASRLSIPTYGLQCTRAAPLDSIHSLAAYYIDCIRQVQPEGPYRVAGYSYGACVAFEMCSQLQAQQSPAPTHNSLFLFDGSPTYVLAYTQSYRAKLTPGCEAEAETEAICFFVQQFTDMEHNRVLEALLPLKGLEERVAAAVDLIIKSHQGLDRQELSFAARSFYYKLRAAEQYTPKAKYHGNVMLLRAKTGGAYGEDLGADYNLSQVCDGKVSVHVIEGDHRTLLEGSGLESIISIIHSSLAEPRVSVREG
Paired box protein Pax-8, sequence (Q06710 whole entry): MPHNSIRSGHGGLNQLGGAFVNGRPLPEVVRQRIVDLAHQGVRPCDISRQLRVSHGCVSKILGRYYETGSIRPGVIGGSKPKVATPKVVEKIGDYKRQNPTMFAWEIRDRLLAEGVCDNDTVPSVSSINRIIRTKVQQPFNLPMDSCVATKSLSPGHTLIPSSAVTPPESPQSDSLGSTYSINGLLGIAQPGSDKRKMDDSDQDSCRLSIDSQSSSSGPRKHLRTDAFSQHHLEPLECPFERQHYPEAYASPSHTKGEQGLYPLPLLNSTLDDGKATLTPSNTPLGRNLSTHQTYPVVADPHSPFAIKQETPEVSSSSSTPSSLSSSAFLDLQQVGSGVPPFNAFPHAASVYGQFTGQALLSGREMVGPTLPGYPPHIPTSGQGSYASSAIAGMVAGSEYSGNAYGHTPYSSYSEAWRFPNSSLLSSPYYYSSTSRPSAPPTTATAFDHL

Compound | EC50 [1] | EC50 [2] | EC50 [3] | EC50 [4] | IC50 (Genome polyprotein) | further results
COc1ccc(C(=O)N2c3ccccc3C=CC2C#N)cc1 (stereo not given) | > 160 µM (inconclusive) | 0.186 µM (active) | > 180 µM (inactive) | > 150 µM (inactive) | – | –
Cc1ccc(S(=O)(=O)NN2C(=O)/C(=C/c3cccc(F)c3)SC2=S)cc1 | – | – | – | – | 27.2 µM (active) | –
Cc1ccc(N2C(=O)C(Cl)=C(N3CCN(C)CC3)C2=O)c(C)c1 | – | – | – | – | 40.5 µM (active) | AC50 [5]: 8.01 µM (active); EC50 (Protein RecA): 2.35 µM (active)
CSC(=Nc1ccc(Br)cc1F)NS(=O)(=O)c1cccs1 | > 150 µM (inactive) | 0.239 µM (active) | > 180 µM (inactive) | 18.6 µM (active) | – | –
O=C(Oc1cc2oc(=O)c3c(c2cc1Cl)CCCC3)c1cccs1 | > 150 µM (inactive) | 1.12 µM (active) | > 180 µM (inactive) | 21.4 µM (active) | – | –
Cc1oc2c(C)c3oc(=O)c(CC(=O)N[C@@H](CC(C)C)C(=O)N[C@@H](Cc4ccccc4)C(=O)O)c(C)c3cc2c1C | – | – | – | – | 72.6 µM (active) | IC50 [6]: 4.59 µM (active)
CSc1ccc(COC(=O)c2cc([N+](=O)[O-])ccc2N2CCOCC2)cc1 | – | – | – | – | – | EC50 (BJ [7]): 0.652 µM (inconclusive); EC50 (BJ [8]): 1.09 µM (active); EC50 (BJ [9]): 0.385 µM (active); EC50 [10]: 0.653 µM (active); IC50 [11]: > 80 µM (inactive); IC50 (Fatty acid synthase [12]): 4.08 µM (active); IC50 (Fatty acid synthase [13]): 3.26 µM (active); AC50 (Paired box protein Pax-8): 0.619 µM (active)
Cc1cccc(C(=O)CC(=O)c2cc(Cl)ccc2O)c1 | 34.3 µM (active) | 1.09 µM (active) | > 180 µM (inactive) | 3.18 µM (active) | – | EC50 [14]: 8.03 µM (active); EC50 [15]: 1.01 µM (active); EC50 [16]: 9.23 µM (active); EC50 [17]: 5.25 µM (active); EC50 (Streptococcus): 1.61 µM (active)
